From PubChem BioAssay AID248 (DTP/NCI, 2004)
Values joined by “and” are separate entries in the source; they are usually repeats but may differ in a detail not shown here. Identical values can stand only once. Inconclusive results and toxic doses are left out. Cut-off read from the data, not from the text of the source: active = T/C of 150% or more; inactive = T/C below 125%.

System: L1210 leukemia ip in BDF1 mice, survival T/C
Test: NCI In Vivo Anticancer Drug Screen. Data for tumor model L1210 Leukemia (intraperitoneal) in B6D2F1 (BDF1) mice
Conditions: endpoint: mean survival time, higher = longer survival
In short: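 Read-out is survival time, reported as the treated-group measurement over the vehicle-control measurement.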

[1] = dose: 100.0 mg/kg/injection, schedule: Q04DX003 (ip), vehicle: saline with Tween-80
[2] = dose: 200.0 mg/kg/injection, schedule: Q04DX003 (ip), vehicle: saline with Tween-80
[3] = dose: 400.0 mg/kg/injection, schedule: Q04DX003 (ip), vehicle: saline with Tween-80
[4] = dose: 50.0 mg/kg/injection, schedule: Q01DX001 (ip), vehicle: carboxymethylcellulose (CMC)
[5] = dose: 200.0 mg/kg/injection, schedule: Q01DX001 (ip), vehicle: carboxymethylcellulose (CMC)
[6] = dose: 400.0 mg/kg/injection, schedule: Q01DX001 (ip), vehicle: carboxymethylcellulose (CMC)
[7] = dose: 100.0 mg/kg/injection, schedule: Q01DX009 (ip), vehicle: Klucel (hydroxypropylcellulose) (HPC)
[8] = dose: 100.0 mg/kg/injection, schedule: Q04DX003 (ip), vehicle: Klucel (hydroxypropylcellulose) (HPC)
[9] = dose: 200.0 mg/kg/injection, schedule: Q01DX009 (ip), vehicle: Klucel (hydroxypropylcellulose) (HPC)
[10] = dose: 200.0 mg/kg/injection, schedule: Q04DX003 (ip), vehicle: Klucel (hydroxypropylcellulose) (HPC)
[11] = dose: 400.0 mg/kg/injection, schedule: Q01DX009 (ip), vehicle: Klucel (hydroxypropylcellulose) (HPC)
[12] = dose: 400.0 mg/kg/injection, schedule: Q04DX003 (ip), vehicle: Klucel (hydroxypropylcellulose) (HPC)
[13] = dose: 50.0 mg/kg/injection, schedule: Q01DX001 (ip), vehicle: saline
[14] = dose: 100.0 mg/kg/injection, schedule: Q01DX001 (ip), vehicle: saline
[15] = dose: 200.0 mg/kg/injection, schedule: Q01DX001 (ip), vehicle: saline
[16] = dose: 400.0 mg/kg/injection, schedule: Q01DX001 (ip), vehicle: saline
[17] = dose: 100.0 mg/kg/injection, schedule: Q01DX001 (ip), vehicle: other
[18] = dose: 200.0 mg/kg/injection, schedule: Q01DX001 (ip), vehicle: other
[19] = dose: 400.0 mg/kg/injection, schedule: Q01DX001 (ip), vehicle: other
[20] = dose: 50.0 mg/kg/injection, schedule: Q04DX003 (ip), vehicle: saline
[21] = dose: 100.0 mg/kg/injection, schedule: Q04DX003 (ip), vehicle: saline
[22] = dose: 200.0 mg/kg/injection, schedule: Q04DX003 (ip), vehicle: saline
[23] = dose: 400.0 mg/kg/injection, schedule: Q04DX003 (ip), vehicle: saline
[24] = dose: 25.0 mg/kg/injection, schedule: Q04DX002 (ip), vehicle: saline with Tween-80
[25] = dose: 50.0 mg/kg/injection, schedule: Q04DX002 (ip), vehicle: saline with Tween-80
[26] = dose: 100.0 mg/kg/injection, schedule: Q04DX002 (ip), vehicle: saline with Tween-80
[27] = dose: 100.0 mg/kg/injection, schedule: Q01DX009 (ip), vehicle: saline with Tween-80
[28] = dose: 200.0 mg/kg/injection, schedule: Q01DX009 (ip), vehicle: saline with Tween-80

Measured: T/C

CCC1(O)C(=O)OCc2c1ccn(C)c2=O (configuration not stated)
inactive: dose: 18.7 mg/kg/injection, schedule: Q01DX001 (ip), vehicle: saline 113 % of control | dose: 37.5 mg/kg/injection, schedule: Q01DX001 (ip), vehicle: saline 105 % of control | dose: 75.0 mg/kg/injection, schedule: Q01DX001 (ip), vehicle: saline 102 % of control | dose: 150.0 mg/kg/injection, schedule: Q01DX001 (ip), vehicle: saline 102 % of control

O=[N+]([O-])c1cccc(S(=O)(=O)OCCOc2ccccc2)c1
inactive: [1] 103 % of control | [2] 101 % of control | [3] 101 % of control

O=C(CCl)c1ccc2c(c1)Nc1ccccc1S2
inactive: [4] 93 % of control | [5] 93 % of control | [6] 96 % of control

Nc1c(Cl)cc(Cl)c2ccc([N+](=O)[O-])cc12
inactive: [7] 93 % of control | [8] 103 % of control | [9] 107 % of control | [10] 93 % of control | [11] 95 % of control | [12] 93 % of control

Cc1ccc(O)c(N=O)c1.[Cu+2]
inactive: [13] 97 % of control | [14] 103 % of control | [15] 103 % of control

Cc1ccc(C)c(C2NC(=O)c3ccccc3N2)c1 (configuration not stated)
inactive: [7] 102 % of control | [8] 106 % of control | [9] 106 % of control | [10] 90 % of control | [11] 103 % of control | [12] 93 % of control

Cc1ccc(N=Nc2ccc(C)cc2NC(=O)Nc2cc([N+](=O)[O-])ccc2F)cc1
inactive: dose: 100.0 mg/kg/injection, schedule: Q04DX002 (ip), vehicle: saline 93 % of control | dose: 200.0 mg/kg/injection, schedule: Q04DX002 (ip), vehicle: saline 108 % of control | dose: 400.0 mg/kg/injection, schedule: Q04DX002 (ip), vehicle: saline 90 % of control

CCOC(=O)C(I)CC (configuration not stated)
inactive: dose: 25.0 mg/kg/injection, schedule: Q01DX009 (ip), vehicle: water 107 % of control | dose: 50.0 mg/kg/injection, schedule: Q01DX009 (ip), vehicle: water 93 % of control | dose: 100.0 mg/kg/injection, schedule: Q01DX009 (ip), vehicle: water 87 % of control

[Br][Ga]([Br])[Br]
inactive: [14] 100 % of control | [15] 101 % of control | [16] 103 % of control

O=C(O)CCCCCCCCCCCO
inactive: [8] 100 % of control | [10] 97 % of control | [12] 91 % of control

CC(=O)OC1COC(SC(C)=O)C(OC(C)=O)C1OC(C)=O (configuration not stated)
inactive: [17] 95 % of control | [18] 104 % of control | [19] 95 % of control

CCC1(CC)NC(=O)N(CCOS(C)(=O)=O)C1=O
inactive: [20] 95 % of control | [21] 115 % of control | [22] 101 % of control | [23] 100 % of control

O=C1C(=O)c2ccccc2C(O)=C1CCCc1ccc(OCc2ccccc2)cc1
inactive: dose: 12.5 mg/kg/injection, schedule: Q01DX009 (ip), vehicle: saline with Tween-80 92 % of control

COc1ccc(CCNC(=O)c2ccc(Cl)c(Cl)c2)cc1OC
inactive: [24] 100 % of control | [25] 96 % of control | [26] 106 % of control and 107 % of control

O=C(Nc1ccc(C2=NCCN2)cc1)c1ccc(N=Nc2ccc(C(=O)Nc3ccc(C4=NCCN4)cc3)cc2)cc1
inactive: dose: 125.0 mg/kg/injection, schedule: Q01DX Z (ip), vehicle: water 106 % of control | dose: 250.0 mg/kg/injection, schedule: Q01DX Z (ip), vehicle: water 107 % of control

CNC(=O)Oc1cccc2c1C(=O)OC2=O
inactive: [17] 93 % of control | dose: 100.0 mg/kg/injection, schedule: Q04DX003 (ip), vehicle: other 94 % of control | [18] 90 % of control | dose: 200.0 mg/kg/injection, schedule: Q04DX003 (ip), vehicle: other 94 % of control | dose: 400.0 mg/kg/injection, schedule: Q04DX003 (ip), vehicle: other 98 % of control

CC1C=CC(C(=O)Nc2ccc(Cl)c(Cl)c2)N1C (configuration not stated)
inactive: dose: 50.0 mg/kg/injection, schedule: Q01DX009 (ip), vehicle: saline with Tween-80 94 % of control | [27] 91 % of control | [28] 93 % of control

O=C(CC=C(c1ccccc1)c1ccccc1)Nc1ccccc1
inactive: dose: 100.0 mg/kg/injection, schedule: Q01DX001 (ip), vehicle: saline with Tween-80 90 % of control | dose: 200.0 mg/kg/injection, schedule: Q01DX001 (ip), vehicle: saline with Tween-80 87 % of control

O=C1CC(=C2C(=O)c3ccccc3C2=O)c2ccccc21
inactive: [1] 95 % of control | [2] 97 % of control | [3] 106 % of control

N#CC(Nc1c(N)nc(N)nc1N)c1ccc(N(CCCl)CCCl)cc1 (configuration not stated)
inactive: [4] 105 % of control | dose: 100.0 mg/kg/injection, schedule: Q01DX001 (ip), vehicle: carboxymethylcellulose (CMC) 103 % of control | [5] 103 % of control | [6] 100 % of control

CCOCc1c(COc2ccc(Br)cc2)n(CC)c2ccccc12
inactive: [27] 93 % of control | [28] 90 % of control | dose: 400.0 mg/kg/injection, schedule: Q01DX009 (ip), vehicle: saline with Tween-80 90 % of control

O=CO.[Cd]
inactive: dose: 5.0 mg/kg/injection, schedule: Q01DX001 (ip), vehicle: saline 104 % of control

O=S(=O)(Nc1ccccn1)c1ccc(N(CCCl)CCCl)cc1
inactive: [17] 95 % of control | [18] 103 % of control | [19] 106 % of control

Cc1cc(CSC2=NCCN2)c(C)cc1CSC1=NCCN1
inactive: [24] 111 % of control | [25] 100 % of control | [26] 101 % of control and 109 % of control

C=CC1(C)CO1 (configuration not stated)
inactive: [21] 93 % of control | [22] 112 % of control | [23] 96 % of control

CC(=O)OCC1OC(n2cnc3c(N)ncnc32)C(OC(C)=O)C1OC(C)=O (configuration not stated)
inactive: [13] 100 % of control | [14] 110 % of control | dose: 100.0 mg/kg/injection, schedule: Q01DX005 (ip), vehicle: saline 93 % of control | [15] 94 % of control and 106 % of control | dose: 200.0 mg/kg/injection, schedule: Q01DX005 (ip), vehicle: saline 95 % of control | dose: 200.0 mg/kg/injection, schedule: Q01DX009 (ip), vehicle: saline 104 % of control | [16] 94 % of control | dose: 400.0 mg/kg/injection, schedule: Q01DX009 (ip), vehicle: saline 109 % of control

CCN(CC)Cc1cc(Nc2cc(C)nc(/N=C(\N)Nc3cc(Cl)cc(Cl)c3)n2)ccc1O
inactive: [1] 98 % of control

Cc1cc(C)c2nc(-c3ccc(F)cc3)cc(C(=O)O)c2c1
inactive: [20] 97 % of control | [14] 101 % of control | [21] 97 % of control | [15] 93 % of control | [22] 96 % of control

Cc1cc2c(c(Cl)n1)C(=O)OC2=O
inactive: dose: 75.0 mg/kg/injection, schedule: Q01DX001 (ip), vehicle: other 95 % of control | dose: 150.0 mg/kg/injection, schedule: Q01DX001 (ip), vehicle: other 95 % of control | dose: 300.0 mg/kg/injection, schedule: Q01DX001 (ip), vehicle: other 103 % of control

CO[C@@H]([CH2][Hg][S]C#N)[C@@H]([CH2][Hg][S]C#N)OC
inactive: dose: 6.25 mg/kg/injection, schedule: Q01DX009 (ip), vehicle: saline sonified 94 % of control | dose: 12.5 mg/kg/injection, schedule: Q01DX009 (ip), vehicle: saline sonified 90 % of control | dose: 12.5 mg/kg/injection, schedule: Q04DX003 (ip), vehicle: saline sonified 97 % of control | dose: 25.0 mg/kg/injection, schedule: Q01DX009 (ip), vehicle: saline sonified 93 % of control | dose: 25.0 mg/kg/injection, schedule: Q04DX003 (ip), vehicle: saline sonified 88 % of control
